Laboratory results reported in US9616099B2, “Cyclosporin analogues for preventing or treating hepatitis C infection” (Enanta Pharmaceuticals, Inc., priority 2013, dated 2017).
Numbered stars: 1 amine (or outer) side, 2 acyl side, 3 side chain; on linkers, the order of the positions; unused ones are H or OH. Square brackets hold non-standard residues; d marks the D form. Peptide text beside a SMILES is read from it. * marks the point of attachment. X2 = CON(C)C(=O)OCCCC[C@@H](C)[C@@H](O)[C@@H](C(=O)[*:2])N(C)[*:1]; X10 = C[C@H](CCOC(=O)NC1CC1)[C@@H](O)[C@@H](C(=O)[*:2])N(C)[*:1]; X5 = C[C@H](CCCCOC(=O)N(C)C)[C@@H](O)[C@@H](C(=O)[*:2])N(C)[*:1]; X9 = C[C@H](CCCCN=[N+]=[N-])[C@@H](O)[C@@H](C(=O)[*:2])N(C)[*:1]; X7 = CCOC(=O)NCCCC[C@@H](C)[C@@H](O)[C@@H](C(=O)[*:2])N(C)[*:1]; X8 = CCOC(=O)OCCCC[C@@H](C)[C@@H](O)[C@@H](C(=O)[*:2])N(C)[*:1]; X1 = COC(=O)NCCCC[C@@H](C)[C@@H](O)[C@@H](C(=O)[*:2])N(C)[*:1]; X4 = COC(=O)OCCCC[C@@H](C)[C@@H](O)[C@@H](C(=O)[*:2])N(C)[*:1]; X3 = CC(=O)NCCCC[C@@H](C)[C@@H](O)[C@@H](C(=O)[*:2])N(C)[*:1]; NMe(dihydroBmt) = CCCC[C@@H](C)[C@@H](O)[C@H](NC)C(=O)O; X6 = C[C@H](CCCCN)[C@@H](O)[C@@H](C(=O)[*:2])N(C)[*:1]; Butyl(4-morpholino) = C(CC*)CN1CCOCC1; NMeT = CN[C@H](C(=O)O)[C@@H](C)O; NMeL = CN[C@@H](CC(C)C)C(=O)O; NMeV = CN[C@H](C(=O)O)C(C)C; dNMeA = CN[C@H](C)C(=O)O; Abu = CC[C@H](N)C(=O)O

Test system: HCV 1a genotype replicon
Assay: microbe, parasite or virus in culture
Format: cell-based
Conditions: Hepatitis C virus; HCV genotype 1a replicon, luciferase assay, 72 hours; read-out: EC50 (Ia) Genotype-1a Replicon EC50

Row | Structure (SMILES) | EC50
1 | CC[C@@H]1NC(=O)[C@H]([C@H](O)[C@H](C)CCOC(=O)NC2CC2)N(C)C(=O)[C@H](C(C)C)N(C)C(=O)[C@H](CC(C)C)N(C)C(=O)[C@H](CC(C)C)N(C)C(=O)[C@@H](C)NC(=O)[C@H](C)NC(=O)[C@H](CC(C)C)N(C)C(=O)[C@H](C(C)C)NC(=O)[C@H]([C@@H](C)OCCCCN2CCOCC2)N(C)C(=O)[C@@H](C)N(C)C1=O [Example 6] (cyclo(A[dA][NMeL][NMeL][NMeV][X10][Abu][dNMeA][NMeT](Butyl(4-morpholino))V[NMeL])) | > 1000 nM
2 | CCCC[C@@H](C)[C@@H](O)[C@H]1C(=O)N[C@@H](CC)C(=O)N(C)[C@H](C)C(=O)N(C)[C@@H]([C@@H](C)OCCCCN2CCOCC2)C(=O)N[C@@H](C(C)C)C(=O)N(C)[C@@H](CC(C)C)C(=O)N[C@@H](C)C(=O)N[C@H](C)C(=O)N(C)[C@@H](CC(C)C)C(=O)N(C)[C@@H](CC(C)C)C(=O)N(C)[C@@H](C(C)C)C(=O)N1C [Example 7] (cyclo(A[dA][NMeL][NMeL][NMeV][NMe(dihydroBmt)][Abu][dNMeA][NMeT](Butyl(4-morpholino))V[NMeL])) | 10 to 100 nM
3 | CC[C@@H]1NC(=O)[C@H]([C@H](O)[C@H](C)CCCCOC(=O)OC)N(C)C(=O)[C@H](C(C)C)N(C)C(=O)[C@H](CC(C)C)N(C)C(=O)[C@H](CC(C)C)N(C)C(=O)[C@@H](C)NC(=O)[C@H](C)NC(=O)[C@H](CC(C)C)N(C)C(=O)[C@H](C(C)C)NC(=O)[C@H]([C@@H](C)OCCCCN2CCOCC2)N(C)C(=O)[C@@H](C)N(C)C1=O [Example 63] (cyclo(A[dA][NMeL][NMeL][NMeV][X4][Abu][dNMeA][NMeT](Butyl(4-morpholino))V[NMeL])) | 10 to 100 nM
4 | CCOC(=O)OCCCC[C@@H](C)[C@@H](O)[C@H]1C(=O)N[C@@H](CC)C(=O)N(C)[C@H](C)C(=O)N(C)[C@@H]([C@@H](C)OCCCCN2CCOCC2)C(=O)N[C@@H](C(C)C)C(=O)N(C)[C@@H](CC(C)C)C(=O)N[C@@H](C)C(=O)N[C@H](C)C(=O)N(C)[C@@H](CC(C)C)C(=O)N(C)[C@@H](CC(C)C)C(=O)N(C)[C@@H](C(C)C)C(=O)N1C [Example 64] (cyclo(A[dA][NMeL][NMeL][NMeV][X8][Abu][dNMeA][NMeT](Butyl(4-morpholino))V[NMeL])) | 10 to 100 nM
5 | CC[C@@H]1NC(=O)[C@H]([C@H](O)[C@H](C)CCCCOC(=O)N(C)C)N(C)C(=O)[C@H](C(C)C)N(C)C(=O)[C@H](CC(C)C)N(C)C(=O)[C@H](CC(C)C)N(C)C(=O)[C@@H](C)NC(=O)[C@H](C)NC(=O)[C@H](CC(C)C)N(C)C(=O)[C@H](C(C)C)NC(=O)[C@H]([C@@H](C)OCCCCN2CCOCC2)N(C)C(=O)[C@@H](C)N(C)C1=O [Example 65] (cyclo(A[dA][NMeL][NMeL][NMeV][X5][Abu][dNMeA][NMeT](Butyl(4-morpholino))V[NMeL])) | 10 to 100 nM
6 | CC[C@@H]1NC(=O)[C@H]([C@H](O)[C@H](C)CCCCOC(=O)N(C)OC)N(C)C(=O)[C@H](C(C)C)N(C)C(=O)[C@H](CC(C)C)N(C)C(=O)[C@H](CC(C)C)N(C)C(=O)[C@@H](C)NC(=O)[C@H](C)NC(=O)[C@H](CC(C)C)N(C)C(=O)[C@H](C(C)C)NC(=O)[C@H]([C@@H](C)OCCCCN2CCOCC2)N(C)C(=O)[C@@H](C)N(C)C1=O [Example 66] (cyclo(A[dA][NMeL][NMeL][NMeV][X2][Abu][dNMeA][NMeT](Butyl(4-morpholino))V[NMeL])) | 10 to 100 nM
7 | CC[C@@H]1NC(=O)[C@H]([C@H](O)[C@H](C)CCCCN=[N+]=[N-])N(C)C(=O)[C@H](C(C)C)N(C)C(=O)[C@H](CC(C)C)N(C)C(=O)[C@H](CC(C)C)N(C)C(=O)[C@@H](C)NC(=O)[C@H](C)NC(=O)[C@H](CC(C)C)N(C)C(=O)[C@H](C(C)C)NC(=O)[C@H]([C@@H](C)OCCCCN2CCOCC2)N(C)C(=O)[C@@H](C)N(C)C1=O [Example 68] (cyclo(A[dA][NMeL][NMeL][NMeV][X9][Abu][dNMeA][NMeT](Butyl(4-morpholino))V[NMeL])) | 10 to 100 nM
8 | CC[C@@H]1NC(=O)[C@H]([C@H](O)[C@H](C)CCCCN)N(C)C(=O)[C@H](C(C)C)N(C)C(=O)[C@H](CC(C)C)N(C)C(=O)[C@H](CC(C)C)N(C)C(=O)[C@@H](C)NC(=O)[C@H](C)NC(=O)[C@H](CC(C)C)N(C)C(=O)[C@H](C(C)C)NC(=O)[C@H]([C@@H](C)OCCCCN2CCOCC2)N(C)C(=O)[C@@H](C)N(C)C1=O [Example 69] (cyclo(A[dA][NMeL][NMeL][NMeV][X6][Abu][dNMeA][NMeT](Butyl(4-morpholino))V[NMeL])) | 100 to 1000 nM
9 | CC[C@@H]1NC(=O)[C@H]([C@H](O)[C@H](C)CCCCNC(C)=O)N(C)C(=O)[C@H](C(C)C)N(C)C(=O)[C@H](CC(C)C)N(C)C(=O)[C@H](CC(C)C)N(C)C(=O)[C@@H](C)NC(=O)[C@H](C)NC(=O)[C@H](CC(C)C)N(C)C(=O)[C@H](C(C)C)NC(=O)[C@H]([C@@H](C)OCCCCN2CCOCC2)N(C)C(=O)[C@@H](C)N(C)C1=O [Example 70] (cyclo(A[dA][NMeL][NMeL][NMeV][X3][Abu][dNMeA][NMeT](Butyl(4-morpholino))V[NMeL])) | 10 to 100 nM
10 | CC[C@@H]1NC(=O)[C@H]([C@H](O)[C@H](C)CCCCNC(=O)OC)N(C)C(=O)[C@H](C(C)C)N(C)C(=O)[C@H](CC(C)C)N(C)C(=O)[C@H](CC(C)C)N(C)C(=O)[C@@H](C)NC(=O)[C@H](C)NC(=O)[C@H](CC(C)C)N(C)C(=O)[C@H](C(C)C)NC(=O)[C@H]([C@@H](C)OCCCCN2CCOCC2)N(C)C(=O)[C@@H](C)N(C)C1=O [Example 71] (cyclo(A[dA][NMeL][NMeL][NMeV][X1][Abu][dNMeA][NMeT](Butyl(4-morpholino))V[NMeL])) | 10 to 100 nM
11 | CCOC(=O)NCCCC[C@@H](C)[C@@H](O)[C@H]1C(=O)N[C@@H](CC)C(=O)N(C)[C@H](C)C(=O)N(C)[C@@H]([C@@H](C)OCCCCN2CCOCC2)C(=O)N[C@@H](C(C)C)C(=O)N(C)[C@@H](CC(C)C)C(=O)N[C@@H](C)C(=O)N[C@H](C)C(=O)N(C)[C@@H](CC(C)C)C(=O)N(C)[C@@H](CC(C)C)C(=O)N(C)[C@@H](C(C)C)C(=O)N1C [Example 72] (cyclo(A[dA][NMeL][NMeL][NMeV][X7][Abu][dNMeA][NMeT](Butyl(4-morpholino))V[NMeL])) | 10 to 100 nM
